Laboratory results from patent US6417359B1, “Pharmaceutical compositions and methods for use” (priority 1998, dated 2002).

Assays:
[1] = system: nicotinic receptors associated with dopamine release; test: Dopamine release (receptor activation/inhibition); assay type: biochemical; conditions: for Emax, dopamine release: amount released relative to (S)-(−)-nicotine
Description: Determination of Receptor Activation/Inhibition and Dopamine Release
Dopamine release was measured using the techniques described in U.S. Pat. No. 5,597,919 to Dull et al. Release is expressed as a percentage of release obtained with a concentration of (S)-(−)-nicotine resulting in maximal effects. Reported EC50 values are expressed in nM, and Emax values represent the amount released relative to (S)-(−)-nicotine or tetramethylammonium ion (TMA), on a percentage basis.
Reported IC50 values are expressed in nM and represent the concentration resulting in 50% inhibition of agonist induced receptor activation. Emax values represent the amount released relative to (S)-(−)-nicotine on a percentage basis.

[2] = system: ganglia-type receptors; test: Determination of interaction with ganglion receptors; assay type: cell-based; conditions: percentage of maximal activation induced by (S)-(−)-nicotine
Description: (§1) Determination of Interaction with Ganglion Receptors The determination of the interaction of the compounds with ganglionic receptors was carried out in accordance with the techniques described in U.S. Pat. No. 5,597,919 to Dull et al. The maximal activation for individual compounds (Emax) was determined as a percentage of the maximal activation induced by (S)-(−)-nicotine. Reported Emax values represent the amount released relative to (S)-(−)-nicotine on a percentage basis.

[3] = molecular target: muscle-type receptors (Homo sapiens, UniProt P02708+P07510+P11230+Q07001); test: Determination of interaction with muscle receptors; assay type: cell-based; conditions: percentage of maximal activation induced by (S)-(−)-nicotine
Sequence of muscle-type receptors (P02708 whole entry): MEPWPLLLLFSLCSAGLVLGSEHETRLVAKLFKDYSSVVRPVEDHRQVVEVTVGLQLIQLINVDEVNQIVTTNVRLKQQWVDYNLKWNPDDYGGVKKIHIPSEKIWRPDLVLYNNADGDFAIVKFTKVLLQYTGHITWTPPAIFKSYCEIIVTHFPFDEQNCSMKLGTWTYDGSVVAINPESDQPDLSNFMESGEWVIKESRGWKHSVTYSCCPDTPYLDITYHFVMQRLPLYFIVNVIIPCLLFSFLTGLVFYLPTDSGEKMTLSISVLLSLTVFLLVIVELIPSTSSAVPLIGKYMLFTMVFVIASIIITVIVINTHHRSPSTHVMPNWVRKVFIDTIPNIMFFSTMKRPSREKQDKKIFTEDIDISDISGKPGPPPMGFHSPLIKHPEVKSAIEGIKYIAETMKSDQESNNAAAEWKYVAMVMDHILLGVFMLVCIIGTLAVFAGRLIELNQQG
Sequence of muscle-type receptors (P11230 24-501): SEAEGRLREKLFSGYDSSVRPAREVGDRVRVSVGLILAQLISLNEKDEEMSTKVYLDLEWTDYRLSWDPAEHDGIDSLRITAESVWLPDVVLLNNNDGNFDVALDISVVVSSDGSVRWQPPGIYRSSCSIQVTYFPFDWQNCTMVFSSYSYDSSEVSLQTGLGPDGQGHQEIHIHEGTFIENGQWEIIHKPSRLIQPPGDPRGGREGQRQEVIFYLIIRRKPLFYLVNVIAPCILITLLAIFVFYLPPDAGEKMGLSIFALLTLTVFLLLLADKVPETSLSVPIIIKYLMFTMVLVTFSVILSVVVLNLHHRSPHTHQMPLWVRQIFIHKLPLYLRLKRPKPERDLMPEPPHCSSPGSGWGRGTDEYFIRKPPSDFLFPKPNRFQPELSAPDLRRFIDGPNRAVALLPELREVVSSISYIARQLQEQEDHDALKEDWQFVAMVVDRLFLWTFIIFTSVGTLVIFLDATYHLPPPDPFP
Sequence of muscle-type receptors (P07510 23-517): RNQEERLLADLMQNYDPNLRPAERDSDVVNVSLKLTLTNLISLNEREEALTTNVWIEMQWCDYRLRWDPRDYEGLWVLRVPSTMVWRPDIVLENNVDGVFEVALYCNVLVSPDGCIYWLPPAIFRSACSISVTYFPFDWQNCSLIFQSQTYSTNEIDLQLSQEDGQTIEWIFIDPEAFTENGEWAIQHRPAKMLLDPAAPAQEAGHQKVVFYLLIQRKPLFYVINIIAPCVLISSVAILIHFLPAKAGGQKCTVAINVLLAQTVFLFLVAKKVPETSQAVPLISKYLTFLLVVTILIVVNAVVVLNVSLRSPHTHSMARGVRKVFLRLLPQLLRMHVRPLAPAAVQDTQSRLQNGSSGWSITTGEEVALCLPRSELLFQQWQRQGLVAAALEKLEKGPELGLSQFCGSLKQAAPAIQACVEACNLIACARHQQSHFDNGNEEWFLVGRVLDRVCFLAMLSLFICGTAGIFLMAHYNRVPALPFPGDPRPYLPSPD
Sequence of muscle-type receptors (Q07001 22-517): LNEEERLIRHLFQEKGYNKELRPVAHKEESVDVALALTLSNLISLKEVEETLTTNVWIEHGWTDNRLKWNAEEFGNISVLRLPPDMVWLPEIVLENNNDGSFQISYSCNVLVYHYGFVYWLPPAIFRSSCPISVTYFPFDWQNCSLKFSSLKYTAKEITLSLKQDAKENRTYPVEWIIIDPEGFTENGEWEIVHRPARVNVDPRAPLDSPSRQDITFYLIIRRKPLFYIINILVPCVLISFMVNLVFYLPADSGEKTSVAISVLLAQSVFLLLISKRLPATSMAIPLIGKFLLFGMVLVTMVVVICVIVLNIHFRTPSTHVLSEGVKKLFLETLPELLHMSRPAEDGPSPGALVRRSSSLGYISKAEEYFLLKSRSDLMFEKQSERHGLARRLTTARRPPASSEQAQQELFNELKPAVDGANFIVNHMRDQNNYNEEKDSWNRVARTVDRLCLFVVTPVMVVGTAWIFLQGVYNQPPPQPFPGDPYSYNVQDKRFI
Description: Determination of Interaction with Muscle Receptors
as §1, with “The” for “Determination of Interaction with Ganglion Receptors The”, “muscle” for “ganglionic”

Row | Compound | Emax, dopamine release [1] [%] | Emax at ganglia-type receptors [2] [%] | Emax [3] [%] | EC50 [1] [µM] | IC50 ([1]; concentration resulting in 50% inhibition of agonist induced receptor activation) [µM]
1 | c1cncc(C2C3CC4CC(C3)CN2C4)c1 (centres unmarked) [Sample No. 1, 1-aza-2-(3-pyridyl)-tricyclo[3.3.1.1^3,7]decane] | 0 | 27 | 21 |  | 
2 | Brc1cncc(C2C3CC4CC(C3)CN2C4)c1 (centres unmarked) [Sample No. 2, 1-aza-2-[5-bromo(3-pyridyl)]tricyclo[3.3.1.1^3,7]decane] | 0 | 50 | 32 | > 100 | 
3 | Cl.Cl.Cl.Nc1cncc(C2C3CC4CC(C3)CN2C4)c1 (centres unmarked) [Sample No. 3, 1-aza-2-[5-amino-(3-pyridyl)]tricyclo[3.3.1.1^3,7]decane trihydrochloride] | 0 | 17 | 75 | > 100 | 
4 | CCOc1cncc(C2C3CC4CC(C3)CN2C4)c1 (centres unmarked) [Sample No. 4, 1-aza-2-[5-ethoxy-(3-pyridyl)]-tricyclo-[3.3.1.1^3,7]decane] | 0 | 0 | 22 | > 100 | 0.846
5 | CC(C)Oc1cncc(C2C3CC4CC(C3)CN2C4)c1 (centres unmarked) [Sample No. 5, 1-aza-2-[5-isopropoxy-(3-pyridyl)]tricyclo[3.3.1.1^3,7]decane] | 0 | 7 | 114 | > 100 | 
